Measurements reported in patent US9820943B2, “Micronized amoxicillin” (DSM SINOCHEM PHARMACEUTICALS NETHERLANDS B.V., priority 2013, dated 2017).

Assay: Powder dissolution, visual determination of clarity in drinking water
Assay type: physicochemical
Conditions: 3.0 g in 1000 mL drinking water, stirred 2 min at 300±10 rpm, 30±1° C.; trihydrate
Description: Non-micronized amoxicillin trihydrate (3.0 g) was added to a 2 L beaker and drinking water (1000 mL) was added. The mixture was stirred for 2 min at 300±10 rpm at 30±1° C. After two minutes the stirrer was stopped. The same procedure was applied to a sample of micronized amoxicillin trihydrate. Both mixtures were visually observed.

Visual appearance of the mixture (clarity) | SMILES
cloudy | CC1(C)S[C@@H]2[C@H](NC(=O)[C@H](N)c3ccc(O)cc3)C(=O)N2[C@H]1C(=O)O [Non-micronized amoxicillin trihydrate, amoxicillin trihydrate]
clear | CC1(C)S[C@@H]2[C@H](NC(=O)[C@H](N)c3ccc(O)cc3)C(=O)N2[C@H]1C(=O)O [micronized amoxicillin trihydrate, amoxicillin trihydrate]
